We go through eight compounds from PubChem BioAssay (NCI).

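Five compound concentrations were applied to cells in 96-well plates for 48 hours; endpoints were derived by simple linear interpolation of the resulting dose-response curve. The concentration for 50% growth inhibition is given as GI50. TGI: total growth inhibition.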 Bounds are passed on as bounds.

Test systems include PC-3 prostate; SK-MEL-5 melanoma; OVCAR-5 ovarian; M14 melanoma; BT-549 breast; SK-OV-3 ovarian; HL-60(TB) leukemia; CAKI-1 renal; NCI-H460 lung; SF-268 CNS.
Holding throughout (test): NCI-60 cell line screen, 48 h

As for `O=S(=O)(Nc1cc(Cl)ccc1Cl)c1ccc(-c2cnc(C3CC3)o2)cc1`, the GI50 with PC-3 prostate is 0.563 µM; in the assay on SK-MEL-5 melanoma, 3.36 µM; with OVCAR-5 ovarian, 3.39 µM; in the assay with M14 melanoma, 0.547 µM; in the assay on BT-549 breast, 0.449 µM; in the assay on SK-OV-3 ovarian, 5.3 µM. The GI50 was 0.468 µM with HL-60(TB) leukemia, 0.647 µM with CAKI-1 renal, 0.769 µM in the assay on NCI-H460 lung and 10.7 µM with SF-268 CNS. The TGI in the assay on PC-3 prostate is 17 µM; in the assay on SK-MEL-5 melanoma, 21.8 µM; in the assay with OVCAR-5 ovarian, > 100 µM; with M14 melanoma, 10.5 µM; in the assay on BT-549 breast, 14.9 µM; with SK-OV-3 ovarian, 85.5 µM. The TGI with HL-60(TB) leukemia was 16.4 µM; in the assay on CAKI-1 renal, 52.1 µM; in the assay with NCI-H460 lung it was 17.4 µM; in the assay on SF-268 CNS, 71.3 µM.

`COC(=O)/C=C/c1cn(C(C)=O)c2ccc(Br)cc12`: the GI50 with PC-3 prostate is 28 µM; in the assay with SK-MEL-5 melanoma it was 33.5 µM; in the assay with OVCAR-5 ovarian, 31 µM; in the assay with M14 melanoma, 28.5 µM; with BT-549 breast, 17.2 µM; with SK-OV-3 ovarian it was 32.4 µM. In addition, the GI50 is 15.3 µM in the assay on HL-60(TB) leukemia, 19.1 µM in the assay with CAKI-1 renal, 34.6 µM with NCI-H460 lung and 26.4 µM in the assay on SF-268 CNS. Besides, the TGI was > 100 µM with PC-3 prostate; > 100 µM in the assay with SK-MEL-5 melanoma; > 83.3 µM with OVCAR-5 ovarian; > 100 µM in the assay with M14 melanoma; 83.6 µM in the assay with BT-549 breast; > 100 µM with SK-OV-3 ovarian. For the same compound, the TGI is > 100 µM in the assay on HL-60(TB) leukemia, 44.2 µM in the assay on CAKI-1 renal, > 100 µM with NCI-H460 lung and > 100 µM with SF-268 CNS.

With `COC(=O)[C@H](Cc1ccc(O)cc1)NC(=O)[C@@H](OC)[C@@H]1Cc2cc3cc(OC4CC(OC5CC(O)C(O)C(C)O5)C(O)C(C)O4)c(C)c(O)c3c(O)c2C(=O)[C@H]1OC1CC(OC2CC(OC3CC(C)(O)C(O)C(C)O3)C(O)C(C)O2)C(O)C(C)O1` (stereo not given in full), the GI50 in the assay with PC-3 prostate was 0.106 µM; with SK-MEL-5 melanoma, 0.0428 µM; with OVCAR-5 ovarian it was 0.207 µM; with M14 melanoma it was 0.204 µM; in the assay on BT-549 breast, 0.0782 µM; in the assay with SK-OV-3 ovarian, 0.185 µM. Further, the GI50 was 0.614 µM in the assay on HL-60(TB) leukemia, 0.45 µM in the assay on CAKI-1 renal, 0.0604 µM in the assay with NCI-H460 lung and 0.199 µM in the assay on SF-268 CNS. The TGI in the assay on PC-3 prostate is > 25 µM; with SK-MEL-5 melanoma it was 0.448 µM; in the assay on OVCAR-5 ovarian, > 25 µM; in the assay on M14 melanoma, 6.43 µM; with BT-549 breast it was 2.09 µM; in the assay on SK-OV-3 ovarian, > 25 µM. Also, the TGI with HL-60(TB) leukemia, with CAKI-1 renal, in the assay with NCI-H460 lung and in the assay on SF-268 CNS was > 25 µM each time.

As to `O=c1c2ccccc2c2ccccc2c(=O)n1Cc1ccc2c(c1)OCO2`, the TGI with PC-3 prostate is > 100 µM; in the assay on SK-MEL-5 melanoma, > 100 µM; in the assay on OVCAR-5 ovarian, > 100 µM; in the assay with M14 melanoma, > 100 µM; in the assay on BT-549 breast, 88.7 µM; with SK-OV-3 ovarian, > 100 µM. Moreover, the TGI in the assay with HL-60(TB) leukemia is 52 µM; with CAKI-1 renal, > 100 µM; in the assay with NCI-H460 lung, > 100 µM; with SF-268 CNS, > 100 µM.

For the compound `CCc1ccc2c(c1)N(CCO)C1=C(C(=O)OC1)C2c1cccc(Cl)c1` (stereo not given), the GI50 with PC-3 prostate was 0.687 µM; in the assay on SK-MEL-5 melanoma, 0.357 µM; in the assay on OVCAR-5 ovarian, 4.61 µM; with M14 melanoma, 0.584 µM; in the assay on BT-549 breast it was 1.98 µM; in the assay with SK-OV-3 ovarian it was 0.663 µM. Besides, the GI50 in the assay with HL-60(TB) leukemia was 0.482 µM; in the assay on CAKI-1 renal, 3.02 µM; with NCI-H460 lung, 0.393 µM; with SF-268 CNS, 0.975 µM. For the same compound, the TGI was determined as 23.4 µM in the assay on PC-3 prostate; 7.56 µM in the assay with SK-MEL-5 melanoma; 23.4 µM in the assay on OVCAR-5 ovarian; 12.2 µM with M14 melanoma; 18.7 µM in the assay on BT-549 breast; 10.7 µM with SK-OV-3 ovarian. For the same compound, the TGI with HL-60(TB) leukemia was determined as 8.82 µM; with CAKI-1 renal it was 35.1 µM; in the assay with NCI-H460 lung it was 12.5 µM; in the assay on SF-268 CNS, 17.2 µM.

As to `O=C(Nc1nc2ccc(F)cc2s1)c1cccnc1Nc1ccc(Cl)cc1`, the GI50 was 1.93 µM with PC-3 prostate; 1.39 µM in the assay on SK-MEL-5 melanoma; 2.64 µM with OVCAR-5 ovarian; 2.94 µM in the assay on M14 melanoma; 2.77 µM in the assay on BT-549 breast; 2.49 µM in the assay on SK-OV-3 ovarian. In addition, the GI50 was 1.6 µM in the assay with HL-60(TB) leukemia, 2.56 µM in the assay with CAKI-1 renal, 2.22 µM with NCI-H460 lung and 3.68 µM in the assay with SF-268 CNS. In addition, the TGI was > 27.4 µM with PC-3 prostate; 3.38 µM in the assay with SK-MEL-5 melanoma; > 61.1 µM with OVCAR-5 ovarian; > 100 µM in the assay with M14 melanoma; > 29.3 µM with BT-549 breast; > 26.5 µM in the assay on SK-OV-3 ovarian. Moreover, the TGI is 5.8 µM in the assay with HL-60(TB) leukemia, > 30.8 µM with CAKI-1 renal, > 100 µM in the assay with NCI-H460 lung and > 100 µM in the assay on SF-268 CNS.

As to `O=C(NCc1ccco1)c1ccc(NC2=C(Cl)C(=O)N(Cc3ccccc3)C2=O)cc1`, the GI50 in the assay on PC-3 prostate is 17.5 µM; in the assay on SK-MEL-5 melanoma, 27.4 µM; with OVCAR-5 ovarian it was 19.7 µM; with M14 melanoma, 15.1 µM; in the assay with BT-549 breast, 17.9 µM; with SK-OV-3 ovarian, 53.2 µM. Moreover, the GI50 in the assay on HL-60(TB) leukemia is 17.4 µM; with CAKI-1 renal, 1.84 µM; with NCI-H460 lung it was 26.7 µM; in the assay with SF-268 CNS it was 17.8 µM. Besides, the TGI was 32.5 µM in the assay with PC-3 prostate; 73.4 µM in the assay on SK-MEL-5 melanoma; 44.9 µM in the assay with OVCAR-5 ovarian; 28.4 µM in the assay on M14 melanoma; 36.5 µM with BT-549 breast; > 100 µM in the assay on SK-OV-3 ovarian. Further, the TGI is 33.8 µM in the assay with HL-60(TB) leukemia, 3.39 µM with CAKI-1 renal, > 100 µM in the assay on NCI-H460 lung and 54.1 µM in the assay with SF-268 CNS.

Take `CC1(C)CCC(C)(C)c2c1ccc(O)c2Cc1c(O)ccc2c1C(C)(C)CCC2(C)C`: the TGI in the assay on PC-3 prostate was determined as 3.79 µM; in the assay on SK-MEL-5 melanoma it was 3.51 µM; in the assay on OVCAR-5 ovarian, 4.56 µM; in the assay with M14 melanoma, 3.75 µM; in the assay on BT-549 breast, 5.2 µM; with SK-OV-3 ovarian, 4.84 µM. For the same compound, the TGI came to 5.46 µM in the assay with HL-60(TB) leukemia, 4.2 µM in the assay with CAKI-1 renal, 5.77 µM in the assay with NCI-H460 lung and 6.75 µM with SF-268 CNS.
